Results reported in PMC12440824, “Chimeric deubiquitinase engineering reveals structural basis for specific inhibition of the mitophagy regulator USP30” (Nature Structural & Molecular Biology, 2025).
“And” between values parts separate entries of the source, which are not always exact repeats. Identical values can stand only once.

Key:
USP30^c1 = molecular target: T1, USP30^c1 (Homo sapiens, UniProt Q70CQ3, DEL179-208/DEL211-214/DEL358-428/F348D/I353E/M350S/N216S/S215G); assay: Ub–RhoG cleavage enzyme inhibition assay, USP30 construct 1; format: biochemical; conditions: for IC50: Ub–RhoG cleavage, 1.5 h pre-incubation, mean ± s.e.m. from curve fitting; for USP30c1 activity: mean n=3
T1 sequence (Q70CQ3 with tags, fused parts or gaps DEL179-208/DEL211-214/S215G/N216S/F348D/M350S/I353E/DEL358-428): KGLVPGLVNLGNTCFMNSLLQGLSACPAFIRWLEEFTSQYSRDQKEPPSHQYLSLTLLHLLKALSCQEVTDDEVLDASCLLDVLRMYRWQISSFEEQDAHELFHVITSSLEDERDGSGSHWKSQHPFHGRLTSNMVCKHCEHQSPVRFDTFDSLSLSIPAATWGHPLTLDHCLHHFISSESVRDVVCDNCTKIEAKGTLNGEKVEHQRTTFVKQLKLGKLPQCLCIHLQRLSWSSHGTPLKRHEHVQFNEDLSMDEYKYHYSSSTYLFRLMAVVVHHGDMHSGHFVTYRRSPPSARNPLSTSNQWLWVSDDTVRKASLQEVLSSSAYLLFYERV
Procedure: (§1) Enzyme kinetics were performed in black, low-volume, non-binding-surface 384-well plates. […] Next, 10 µl of 2× enzyme solution was added in triplicate to the plate. The reaction was started by adding 10 µl of 2× substrate solution. […] Inhibitor solution (4×) was added to 4× enzyme solution to create a 2× enzyme–inhibitor mixture. Next, 10 µl of this 2× enzyme–inhibitor mixture was then added to the plate in triplicate, and the plate was incubated at room temperature for 90 min. The reaction was started by adding 10 µl of 2× Ub–RhoG substrate. […] Data were analyzed with GraphPad Prism.

USP30^ch3 F453Y [1] = molecular target: T2, USP30^ch3 F453Y (Homo sapiens, UniProt Q70CQ3, F453Y, form not given); assay: Ub–RhoG cleavage enzyme inhibition assay, chimera 3 F453Y; format: biochemical; design: USP30ch3 F453Y activity / USP30ch3 F453Y activity (ED Fig. 7e series): scale not given here; conditions: for reduction of inhibition potency by F453Y substitution (specificity window vs WT): USP30^ch3 F453Y vs WT; for USP30ch3 F453Y activity (ED Fig. 7e series) / USP30ch3 F453Y activity: mean n=3; for USP30ch3 F453Y activity: Fig. 4e,g
T2 sequence (Q70CQ3 64-502 F453Y, form open): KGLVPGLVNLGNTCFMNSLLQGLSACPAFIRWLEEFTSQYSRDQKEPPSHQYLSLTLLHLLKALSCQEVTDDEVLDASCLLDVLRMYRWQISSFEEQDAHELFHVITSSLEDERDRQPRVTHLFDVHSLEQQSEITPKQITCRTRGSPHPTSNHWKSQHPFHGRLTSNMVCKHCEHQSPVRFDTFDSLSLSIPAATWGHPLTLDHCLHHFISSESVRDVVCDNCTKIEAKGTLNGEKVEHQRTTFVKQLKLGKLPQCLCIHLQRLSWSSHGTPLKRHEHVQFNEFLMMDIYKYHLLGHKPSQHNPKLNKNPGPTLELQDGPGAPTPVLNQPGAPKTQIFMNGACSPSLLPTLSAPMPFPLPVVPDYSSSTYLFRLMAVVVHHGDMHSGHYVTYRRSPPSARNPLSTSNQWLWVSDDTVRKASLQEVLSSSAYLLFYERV
T2 sequence (P54578 248-318 partner, form open): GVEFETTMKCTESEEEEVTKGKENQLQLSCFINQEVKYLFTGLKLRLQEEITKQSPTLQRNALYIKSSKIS
T2 sequence (Q9P2H5 821-846 partner, form open): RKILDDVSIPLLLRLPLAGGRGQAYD
Procedure: as §1

USP30^ch4 = assay: Thermal shift assay, USP30 ch4; format: binding, human; conditions: 20 μM inhibitor; for ΔTm, USP30^ch4: replicates or average
Procedure: (§2) The thermal stability of USP30 constructs and effects of either inhibitor or Ub-PA binding were determined by thermal shift assays. Inhibitor, Ub-PA and SYPRO orange dye (Sigma, 5,000× stock in DMSO) solutions were prepared in 1× PBS, 4 mM DTT. Inhibitor/Ub-PA was prediluted to 100 µM, and SYPRO orange dye was prediluted to 50× (from the commercial stock). Mixtures of protein, inhibitor/Ub-PA and SYPRO were prepared with inhibitor/Ub-PA at a final concentration of 20 μM, SYPRO at a final concentration of 4× and protein at a final concentration of 2 μM for c1, 4 μM for ch1, ch4 and c2 and 3 μM for ch2 and ch3. Samples were added in triplicate to a white 96-well PCR plate (Bio-Rad). Fluorescence intensity was monitored (excitation, 450–490 nm; emission, 560–580 nm) at a gradient of 20–90 °C (increment of 0.3 °C, hold for 5 s before read) on a real-time PCR system (Bio-Rad).

USP30^ch3 F453Y [2] = molecular target: T2, USP30^ch3 F453Y; assay: Thermal shift assay, USP30 ch3 F453Y; format: binding; conditions: 20 μM inhibitor
Procedure: as §2

USP30^ch3 I154A = USP30^ch3 I154A (Homo sapiens, UniProt Q70CQ3, I154A, form not given); assay: Thermal shift assay, USP30 ch3 I154A; format: binding; conditions: 20 μM inhibitor
Chain of USP30^ch3 I154A (Q70CQ3 64-502 I154A, form open): as the sequence (Q70CQ3 64-502 F453Y, form open) above, with I91A, Y390F counted along it
Chain of USP30^ch3 I154A (P54578 248-318 partner, form open): as the sequence (P54578 248-318 partner, form open) above
Procedure: as §2

[3] = test system: T3, Flag-tagged, full-length USP30 (wild type) in HEK293 cells; assay: Cellular ubiquitin probe competition, overexpressed Flag-tagged full-length USP30 wild type; format: cell-based, human; conditions: 2 µM compound, 2 h; HA-Ub-PA probe in lysate
T3 construct: C-terminally Flag-tagged human USP30 (1–517) was used for transient transfection; expressed in transfected cells; host or cells: HEK293, transient transfection of a pOPINE vector
Procedure: HEK293 cells (8 × 10^5 cells per well) were seeded in six-well plates and cultivated for 24 h. PEI transfecting reagent (Polysciences) was pre-incubated for 10 min with the vectors in 200 μl Opti-MEM medium (2 µg DNA per well). Cells were transfected and incubated for 48 h. Following the treatment with either compounds or DMSO in fresh medium for an additional 2 h, cells were processed as described below. Cells were seeded at 8 × 10^5 cells per well and grown for 48 h. […] The medium was aspirated, and cells were washed once with ice-cold PBS. Cells were collected by scraping in lysis buffer (150 mM NaCl, 250 mM sucrose, 50 mM Tris, pH 8.0, 5 mM TCEP) supplemented with EDTA-free complete protease inhibitor cocktail and benzonase. Suspended cells were homogenized by 12 bursts of a microtip probe sonicator (Branson Sonifier 450) at 10% amplitude with pulses of 1 s on ice. Remaining cell debris was separated by centrifugation (20,817g, 5 min, 4 °C). […] After incubation for 10 min at room temperature, reactions were quenched by the addition of 4× reducing LDS sample buffer. Samples were resolved by SDS–PAGE and further analyzed via western blot. Using a Trans-Blot Turbo system (Bio-Rad, 1.0 A, 25 V, 30 min), proteins were blotted onto a nitrocellulose membrane. […]

[4] = pH 8, read-out: USP30c1 activity

CC(C)(CO)NS(=O)(=O)c1ccc(NC(=O)[C@H](Cc2ccccc2)NC(=O)c2ccc(F)cc2)cc1 [NK036]
IC50 (USP30^c1): 7.4 nM and 7.38 nM
activity at 1.562 pM (USP30^c1; [4]): 100%
activity at 6.25 pM (USP30^c1; [4]): 101%
activity at 25 pM (USP30^c1; [4]): 98.2%
activity at 0.0001 µM (USP30^c1; [4]): 95.3%
activity at 0.00039 µM (USP30^c1; [4]): 89%
activity at 0.00156 µM (USP30^c1; [4]): 79.6%
activity at 0.00625 µM (USP30^c1; [4]): 53.6%
activity at 0.025 µM (USP30^c1; [4]): 27%
activity at 0.1 µM (USP30^c1; [4]): 10.3%
activity at 0.4 µM (USP30^c1; [4]): 3.49%
activity at 1.6 µM (USP30^c1; [4]): 1.25%
reduction of inhibition potency by F453Y substitution (specificity window vs WT) (USP30^ch3 F453Y [1]): more than two orders of magnitude
Tm in presence of compound, USP30^ch4 (USP30^ch4): 59.2 °C
ΔTm, USP30^ch4 (USP30^ch4; 20 µM): 7.7 °C and 7.6 °C and 7.9 °C
Tm in presence of compound, USP30^ch3 F453Y (USP30^ch3 F453Y [2]): 58.2 °C
Tm in presence of compound, USP30^ch3 I154A (USP30^ch3 I154A): 59.0 °C
probe labeling of wild-type Flag-USP30 [3]: abolished probe labeling

CC(C)(C)NS(=O)(=O)c1ccc(NC(=O)[C@H](Cc2ccccc2)NC(=O)c2ccc(F)cc2)cc1 [compound 39]
IC50 (USP30^c1): 0.8 nM and 0.834 nM
USP30c1 activity (USP30^c1; inhibitor 0.0015625 nM): 0.9588
USP30c1 activity (USP30^c1; inhibitor 0.00625 nM): 0.9404
USP30c1 activity (USP30^c1; inhibitor 0.025 nM): 0.8662
USP30c1 activity (USP30^c1; inhibitor 0.1 nM): 0.7469
USP30c1 activity (USP30^c1; inhibitor 0.39 nM): 0.5918
USP30c1 activity (USP30^c1; inhibitor 1.56 nM): 0.4353
USP30c1 activity (USP30^c1; inhibitor 6.25 nM): 0.2635
USP30c1 activity (USP30^c1; inhibitor 25 nM): 0.1267
USP30c1 activity (USP30^c1; inhibitor 100 nM): 0.06264
USP30c1 activity (USP30^c1; inhibitor 400 nM): 0.02701
USP30c1 activity (USP30^c1; inhibitor 1600 nM): 0.01055
reduction of inhibition potency by F453Y substitution (specificity window vs WT) (USP30^ch3 F453Y [1]): three orders of magnitude
USP30ch3 F453Y activity (ED Fig. 7e series) (USP30^ch3 F453Y [1]; inhibitor 0.001563 nM): 1.055
USP30ch3 F453Y activity (USP30^ch3 F453Y [1]; inhibitor 0.001563 nM): 0.9971
USP30ch3 F453Y activity (ED Fig. 7e series) (USP30^ch3 F453Y [1]; inhibitor 0.00625 nM): 1.076
USP30ch3 F453Y activity (USP30^ch3 F453Y [1]; inhibitor 0.00625 nM): 1.054
USP30ch3 F453Y activity (ED Fig. 7e series) (USP30^ch3 F453Y [1]; inhibitor 0.025 nM): 1.018
USP30ch3 F453Y activity (USP30^ch3 F453Y [1]; inhibitor 0.025 nM): 1.004
USP30ch3 F453Y activity (ED Fig. 7e series) (USP30^ch3 F453Y [1]; inhibitor 0.1 nM): 0.9989
USP30ch3 F453Y activity (USP30^ch3 F453Y [1]; inhibitor 0.1 nM): 0.9561
USP30ch3 F453Y activity (ED Fig. 7e series) (USP30^ch3 F453Y [1]; inhibitor 0.39 nM): 0.8995
USP30ch3 F453Y activity (USP30^ch3 F453Y [1]; inhibitor 0.39 nM): 0.9204
USP30ch3 F453Y activity (ED Fig. 7e series) (USP30^ch3 F453Y [1]; inhibitor 1.56 nM): 0.9776
USP30ch3 F453Y activity (USP30^ch3 F453Y [1]; inhibitor 1.56 nM): 0.9185
USP30ch3 F453Y activity (ED Fig. 7e series) (USP30^ch3 F453Y [1]; inhibitor 6.25 nM): 0.9466
USP30ch3 F453Y activity (USP30^ch3 F453Y [1]; inhibitor 6.25 nM): 0.9079
USP30ch3 F453Y activity (ED Fig. 7e series) (USP30^ch3 F453Y [1]; inhibitor 25 nM): 0.9111
USP30ch3 F453Y activity (USP30^ch3 F453Y [1]; inhibitor 25 nM): 0.8377
USP30ch3 F453Y activity (ED Fig. 7e series) (USP30^ch3 F453Y [1]; inhibitor 100 nM): 0.8886
USP30ch3 F453Y activity (USP30^ch3 F453Y [1]; inhibitor 100 nM): 0.7744
USP30ch3 F453Y activity (ED Fig. 7e series) (USP30^ch3 F453Y [1]; inhibitor 400 nM): 0.7448
USP30ch3 F453Y activity (USP30^ch3 F453Y [1]; inhibitor 400 nM): 0.5461
USP30ch3 F453Y activity (ED Fig. 7e series) (USP30^ch3 F453Y [1]; inhibitor 1600 nM): 0.7279
USP30ch3 F453Y activity (USP30^ch3 F453Y [1]; inhibitor 1600 nM): 0.3171
Tm in presence of compound, USP30^ch4 (USP30^ch4): 60.3 °C
ΔTm, USP30^ch4 (USP30^ch4; 20 µM): 8.8 °C
ΔTm, USP30^ch4 (USP30^ch4; listed as NK017, 20 µM): 9.0 °C and 8.7 °C (2×)
Tm in presence of compound, USP30^ch3 F453Y (USP30^ch3 F453Y [2]): 58.5 °C
Tm in presence of compound, USP30^ch3 I154A (USP30^ch3 I154A): 59.0 °C
probe labeling of wild-type Flag-USP30 [3]: abolished probe labeling
